Data taken from patent publication US8501771B2, “Aminoalcohol-substituted aryldihydroisoquinolinones, process for their preparation and their use as medicaments” (Sanofi, priority 2006, dated 2013).

target: T1, human MCH receptor (Homo sapiens, UniProt Q99705); assay: Functional IC50 of MCH1R antagonists: cellular calcium flux (FLIPR) after addition of agonist MCH; type: cell-based; conditions: recombinant HEK293 cell line expressing the human MCH receptor
T1 construct: expressed in transfected cells
From the text: Influence on the MCH receptor in vitro; determination of functional IC50 values of MCH1R antagonists
Cloning of the cDNA for the human MCH receptor, preparation of a recombinant HEK293 cell line which expresses the human MCH receptor, and functional measurements with the recombinant cell line took place in analogy to the description by Audinot et al. (J. Biol. Chem. 276, 13554-13562, 2001). A difference from the reference was, however, the use of the plasmid pEAK8 from EDGE Biosystems (USA) for the construction of the expression vector. The host used for the transfection was a transformed HEK cell line named “PEAK Stable Cells” (likewise from EDGE Biosystems). Functional measurements of the cellular calcium flux after addition of agonist (MCH) in the presence of ligand of the invention took place with the aid of the FLIPR apparatus from Molecular Devices (USA), using protocols of the apparatus manufacturer. The compounds of the invention show a significant inhibition (>30%) of the signal induced by the agonist at a concentration of 100 μM, preferably at 10 μM, particularly preferably at 1 μM, very particularly preferably at 100 nM and even more particularly preferably at 10 nM.
Table 8 summarizes the results which were obtained by the above described calcium […] assay.

T1 sequence (Q99705 whole entry): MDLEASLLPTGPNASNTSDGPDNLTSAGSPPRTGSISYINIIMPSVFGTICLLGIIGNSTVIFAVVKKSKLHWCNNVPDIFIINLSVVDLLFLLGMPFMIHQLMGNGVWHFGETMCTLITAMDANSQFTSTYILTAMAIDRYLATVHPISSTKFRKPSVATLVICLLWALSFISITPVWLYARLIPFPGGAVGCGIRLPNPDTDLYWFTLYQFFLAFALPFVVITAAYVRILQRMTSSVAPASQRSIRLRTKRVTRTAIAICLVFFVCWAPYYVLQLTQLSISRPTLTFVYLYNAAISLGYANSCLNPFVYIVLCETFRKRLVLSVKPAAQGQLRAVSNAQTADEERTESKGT

Row | SMILES | IC50 [nM]
1 | COc1cc(-n2ccc3cc(OC[C@@H]4CCCO4)ccc3c2=O)ccc1OCCN1CC2CCCCC2C1 (stereo partly drawn) [Example 84] | 250
2 | COc1cc(-n2ccc3cc(OC[C@@H]4CCCO4)ccc3c2=O)ccc1OCCN1C2CCC1CC2 [Example 86] | 210
3 | Cc1cc(-n2ccc3cc(OC[C@H]4CCCO4)ccc3c2=O)ccc1O[C@H]1C[C@H]2CC[C@@H](C1)N2Cc1ncc[nH]1 [Example 81] | 460
4 | CCCCOc1ccc2c(c1)CCN(c1ccc(O[C@H]3C[C@H]4CC[C@@H](C3)N4C)c(Cl)c1)C2=O [Example 1, 6-Butoxy-2-[3-chloro-4-((1R,3R,5S)-8-methyl-8-azabicyclo[3.2.1]oct-3-yloxy)-phenyl]-3,4-dihydro-2H-isoquinolin-1-one] | 930
5 | O=c1c2ccc(OC[C@H]3CCCO3)cc2ccn1-c1ccc(O[C@H]2C[C@H]3CC[C@@H](C2)N3C2CC2)c(F)c1 [Example 75] | 5010
6 | COc1cc(-n2ccc3cc(OC[C@H]4CCCO4)ccc3c2=O)ccc1OC1CN2CCC1CC2 (stereo partly drawn) [Example 69] | 1180
7 | Cc1ccc(-c2cc3c(s2)C(=O)N(c2ccc(OCCN(C)C)cc2)CC3)cc1 [Example 55, 6-[4-(2-Dimethylaminoethoxy)phenyl]-2-p-tolyl-5,6-dihydro-4H-thieno[2,3-c]pyridin-7-one] | 4900
8 | COCCN1[C@@H]2CC[C@H]1C[C@@H](Oc1ccc(-n3ccc4cc(OC[C@H]5CCCO5)ccc4c3=O)cc1C)C2 [Example 74] | 140
9 | CCCCOc1ccc2c(c1)CCN(c1ccc(OCCN3CCCC3)c(OC)c1)C2=O [Example 6] | 270
10 | COc1cc(-n2ccc3cc(OC[C@@H]4CCCO4)ccc3c2=O)ccc1OCCN1CC2CCC2C1 (stereo partly drawn) [Example 83, 2-{4-[2-(3-Azabicyclo[3.2.0]hept-3-yl)ethoxy]-3-methoxyphenyl}-6-[(S)-1-(tetrahydrofuran-2-yl)methoxy]-2H-isoquinolin-1-one] | 840
11 | CN1[C@@H]2CC[C@H]1C[C@@H](Oc1ccc(N3CCc4cc(C#CC5(O)CCCC5)ccc4C3=O)cc1Cl)C2 [Example 34] | 1150
12 | CN1[C@@H]2CC[C@H]1C[C@@H](Oc1ccc(N3CCc4cc(C#CC(C)(C)O)ccc4C3=O)cc1Cl)C2 [Example 45] | 1110
13 | Cc1cc(-n2ccc3cc(OC[C@H]4CCCO4)ccc3c2=O)ccc1O[C@H]1C[C@H]2CC[C@@H](C1)N2CC(C)(C)O [Example 72] | 490
14 | COCCOc1ccc2c(c1)CCN(c1ccc(OCCN3CCCC3)c(OC)c1)C2=O [Example 15] | 5440
15 | CN1[C@@H]2CC[C@H]1C[C@@H](Oc1ccc(N3CCc4cc(OCC5CCC5)ccc4C3=O)cc1Cl)C2 [Example 17] | 1140
16 | CN1[C@@H]2CC[C@H]1C[C@@H](Oc1ccc(N3CCc4cc(OC5CSC5)ccc4C3=O)cc1Cl)C2 [Example 26, 2-[3-Chloro-4-((1R,3R,5S)-8-methyl-8-azabicyclo[3.2.1]oct-3-yloxy)phenyl]-6-(thietan-3-yloxy)-3,4-dihydro-2H-isoquinolin-1-one] | 14800
17 | CCCCOc1ccc2c(c1)CCN(c1ccc(OC[C@@H]3CCCN4CCCC[C@H]34)cc1)C2=O [Example 9] | 870
18 | CCC(O)C#Cc1ccc2c(c1)CCN(c1ccc(O[C@H]3C[C@H]4CC[C@@H](C3)N4C)c(Cl)c1)C2=O (stereo partly drawn) [Example 42] | 780
19 | CCCCOc1ccc2c(c1)CCN(c1ccc(O[C@H]3C[C@H]4CC[C@@H](C3)N4CCCF)cc1)C2=O [Example 89, 6-Butoxy-2-{4-[(1R,3R,5S)-8-(3-fluoropropyl)-8-azabicyclo[3.2.1]oct-3-yloxy]phenyl}-3,4-dihydro-2H-isoquinolin-1-one] | 4390
20 | COc1cc(-n2ccc3cc(OC[C@@H]4CCCO4)ccc3c2=O)ccc1OCCN1CCCC1 [Example 65] | 130
21 | CN1[C@@H]2CC[C@H]1C[C@@H](Oc1ccc(-n3ccc4cc(OC[C@@H]5CCCO5)ccc4c3=O)cc1)C2 [Example 56, 2-[4-((1R,3R,5S)-8-Methyl-8-azabicyclo[3.2.1]oct-3-yloxy)phenyl]-6-[(S)-1-(tetrahydrofuran-2-yl)methoxy]-2H-isoquinolin-1-one] | 160
